In general, inhibition refers to the drop in the measured response relative to a control, in per cent.

Common to all, as to settings: Compound concentration 10.0 uM
Assay [1] concerns the target Insulin receptor (Homo sapiens) (UniProt P06213).
The target of assay [2] is Rho-associated protein kinase 1 (Homo sapiens) (UniProt Q13464).
For assay [3], the target named is MAP kinase-activated protein kinase 2 (Homo sapiens) (UniProt P49137).
The target in assay [4] is Sodium-dependent dopamine transporter (Homo sapiens) (UniProt Q01959).
Chain of Sodium-dependent dopamine transporter (Homo sapiens) (Q01959 whole entry): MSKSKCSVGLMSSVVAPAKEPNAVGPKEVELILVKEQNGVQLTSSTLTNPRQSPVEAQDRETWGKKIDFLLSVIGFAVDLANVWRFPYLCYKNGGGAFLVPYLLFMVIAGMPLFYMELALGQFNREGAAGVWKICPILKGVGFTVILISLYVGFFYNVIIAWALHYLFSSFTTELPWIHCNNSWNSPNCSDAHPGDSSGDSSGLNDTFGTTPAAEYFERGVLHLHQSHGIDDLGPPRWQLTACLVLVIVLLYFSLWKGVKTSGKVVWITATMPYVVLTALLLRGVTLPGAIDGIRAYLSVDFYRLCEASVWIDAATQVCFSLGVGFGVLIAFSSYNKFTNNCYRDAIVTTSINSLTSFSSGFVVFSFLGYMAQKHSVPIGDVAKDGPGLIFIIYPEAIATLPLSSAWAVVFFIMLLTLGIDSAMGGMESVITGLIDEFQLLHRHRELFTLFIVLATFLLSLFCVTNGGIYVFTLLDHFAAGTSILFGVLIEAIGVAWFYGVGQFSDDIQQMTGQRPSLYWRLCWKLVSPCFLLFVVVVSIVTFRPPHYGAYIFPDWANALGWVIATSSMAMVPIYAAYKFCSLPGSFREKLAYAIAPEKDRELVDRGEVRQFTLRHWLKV
Assay [5] addresses Receptor-type tyrosine-protein kinase FLT3 (Homo sapiens) (UniProt P36888).
Assay [6] addresses Serine/threonine-protein kinase mTOR (Homo sapiens) (UniProt P42345).
Assay [7] concerns the target Cyclin-dependent kinase 2/cyclin A (Homo sapiens) (UniProt P24941+P20248+P78396).
Assay [8] addresses T1, Inhibitor of nuclear factor kappa-B kinase subunit beta (Homo sapiens) (UniProt O14920).
T1 sequence (whole entry): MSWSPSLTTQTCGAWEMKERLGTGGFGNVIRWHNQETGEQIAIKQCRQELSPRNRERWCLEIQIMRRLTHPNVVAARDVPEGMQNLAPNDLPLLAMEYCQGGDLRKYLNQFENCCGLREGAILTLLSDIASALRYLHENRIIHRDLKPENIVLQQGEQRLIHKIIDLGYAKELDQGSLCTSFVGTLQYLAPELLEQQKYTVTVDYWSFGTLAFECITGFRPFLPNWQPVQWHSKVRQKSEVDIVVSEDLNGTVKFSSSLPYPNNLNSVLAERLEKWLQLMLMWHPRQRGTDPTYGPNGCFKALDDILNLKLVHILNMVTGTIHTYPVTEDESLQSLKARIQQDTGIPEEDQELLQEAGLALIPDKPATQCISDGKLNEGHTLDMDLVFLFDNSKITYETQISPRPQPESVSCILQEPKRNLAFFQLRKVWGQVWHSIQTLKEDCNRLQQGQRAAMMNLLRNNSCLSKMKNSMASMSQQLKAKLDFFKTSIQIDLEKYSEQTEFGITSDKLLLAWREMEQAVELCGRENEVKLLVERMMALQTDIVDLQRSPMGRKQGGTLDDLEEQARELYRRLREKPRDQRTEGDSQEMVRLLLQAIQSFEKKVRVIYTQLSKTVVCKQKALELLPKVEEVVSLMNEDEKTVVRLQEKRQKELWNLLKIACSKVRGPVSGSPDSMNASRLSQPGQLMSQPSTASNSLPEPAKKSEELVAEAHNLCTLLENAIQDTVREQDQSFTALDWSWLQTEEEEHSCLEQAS

Assay [9] deals with T2, Phosphorylase b kinase regulatory subunit alpha, liver isoform (Homo sapiens) (UniProt P46019).
T2 sequence (whole entry): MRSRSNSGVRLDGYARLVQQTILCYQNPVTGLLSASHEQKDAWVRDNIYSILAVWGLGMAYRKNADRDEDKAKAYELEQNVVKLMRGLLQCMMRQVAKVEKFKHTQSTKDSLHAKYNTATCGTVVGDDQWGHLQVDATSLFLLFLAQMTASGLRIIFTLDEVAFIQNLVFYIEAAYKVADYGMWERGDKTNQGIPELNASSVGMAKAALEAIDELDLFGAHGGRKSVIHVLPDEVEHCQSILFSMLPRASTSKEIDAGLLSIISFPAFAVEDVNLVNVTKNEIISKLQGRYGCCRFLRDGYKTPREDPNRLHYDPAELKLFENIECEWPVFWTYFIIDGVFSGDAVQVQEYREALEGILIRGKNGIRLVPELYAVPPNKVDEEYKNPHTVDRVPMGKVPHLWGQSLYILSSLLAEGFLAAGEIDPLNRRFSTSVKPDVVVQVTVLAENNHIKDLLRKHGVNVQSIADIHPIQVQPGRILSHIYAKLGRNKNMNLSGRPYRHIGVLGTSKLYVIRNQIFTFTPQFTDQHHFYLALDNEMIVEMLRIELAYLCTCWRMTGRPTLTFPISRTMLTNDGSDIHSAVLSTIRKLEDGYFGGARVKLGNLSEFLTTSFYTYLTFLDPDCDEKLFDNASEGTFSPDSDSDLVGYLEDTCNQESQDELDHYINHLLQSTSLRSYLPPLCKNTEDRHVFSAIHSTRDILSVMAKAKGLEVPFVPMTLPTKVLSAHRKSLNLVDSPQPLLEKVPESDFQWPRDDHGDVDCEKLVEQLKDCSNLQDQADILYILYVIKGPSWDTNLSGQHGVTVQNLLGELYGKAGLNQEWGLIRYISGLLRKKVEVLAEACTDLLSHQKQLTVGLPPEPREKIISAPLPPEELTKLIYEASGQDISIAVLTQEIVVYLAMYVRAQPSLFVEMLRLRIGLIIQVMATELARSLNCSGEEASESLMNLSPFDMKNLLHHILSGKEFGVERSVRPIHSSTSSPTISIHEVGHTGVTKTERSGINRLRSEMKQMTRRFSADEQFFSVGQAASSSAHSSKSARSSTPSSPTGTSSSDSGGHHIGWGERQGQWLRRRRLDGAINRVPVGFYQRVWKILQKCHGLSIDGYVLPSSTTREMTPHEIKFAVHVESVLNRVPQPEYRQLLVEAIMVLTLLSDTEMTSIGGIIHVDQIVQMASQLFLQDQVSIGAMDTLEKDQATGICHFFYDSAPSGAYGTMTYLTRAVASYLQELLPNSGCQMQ

Assay [10] addresses D(4) dopamine receptor (Homo sapiens) (UniProt P21917).

Structures are written as SMILES.

Chain of Receptor-type tyrosine-protein kinase FLT3 (Homo sapiens) (P36888 whole entry): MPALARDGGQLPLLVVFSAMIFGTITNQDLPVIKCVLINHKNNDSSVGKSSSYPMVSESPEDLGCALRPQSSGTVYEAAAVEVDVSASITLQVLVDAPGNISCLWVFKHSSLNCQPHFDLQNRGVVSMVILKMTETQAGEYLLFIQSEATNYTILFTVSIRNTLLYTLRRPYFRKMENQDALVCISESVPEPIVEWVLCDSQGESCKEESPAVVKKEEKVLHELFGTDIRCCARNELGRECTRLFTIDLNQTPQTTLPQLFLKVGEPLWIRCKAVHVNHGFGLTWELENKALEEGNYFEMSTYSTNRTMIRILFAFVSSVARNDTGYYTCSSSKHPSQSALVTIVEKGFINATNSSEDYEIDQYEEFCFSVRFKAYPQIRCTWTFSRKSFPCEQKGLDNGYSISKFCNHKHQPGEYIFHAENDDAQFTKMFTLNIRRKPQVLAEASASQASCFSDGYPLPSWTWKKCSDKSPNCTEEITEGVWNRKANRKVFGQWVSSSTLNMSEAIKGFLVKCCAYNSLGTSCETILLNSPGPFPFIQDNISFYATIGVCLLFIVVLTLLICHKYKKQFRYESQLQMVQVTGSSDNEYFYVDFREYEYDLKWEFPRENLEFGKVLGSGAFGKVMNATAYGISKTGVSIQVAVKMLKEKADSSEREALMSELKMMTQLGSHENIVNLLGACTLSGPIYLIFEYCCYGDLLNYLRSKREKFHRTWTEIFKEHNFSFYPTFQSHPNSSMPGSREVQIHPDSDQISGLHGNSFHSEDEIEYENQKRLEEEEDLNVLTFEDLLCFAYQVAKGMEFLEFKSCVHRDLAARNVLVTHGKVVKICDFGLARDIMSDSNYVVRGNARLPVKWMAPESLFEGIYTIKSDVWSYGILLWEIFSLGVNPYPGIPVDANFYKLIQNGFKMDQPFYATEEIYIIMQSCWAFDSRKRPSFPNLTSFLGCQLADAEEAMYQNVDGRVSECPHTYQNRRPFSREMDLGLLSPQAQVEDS
Chain of Insulin receptor (Homo sapiens) (P06213 28-758 limits assumed): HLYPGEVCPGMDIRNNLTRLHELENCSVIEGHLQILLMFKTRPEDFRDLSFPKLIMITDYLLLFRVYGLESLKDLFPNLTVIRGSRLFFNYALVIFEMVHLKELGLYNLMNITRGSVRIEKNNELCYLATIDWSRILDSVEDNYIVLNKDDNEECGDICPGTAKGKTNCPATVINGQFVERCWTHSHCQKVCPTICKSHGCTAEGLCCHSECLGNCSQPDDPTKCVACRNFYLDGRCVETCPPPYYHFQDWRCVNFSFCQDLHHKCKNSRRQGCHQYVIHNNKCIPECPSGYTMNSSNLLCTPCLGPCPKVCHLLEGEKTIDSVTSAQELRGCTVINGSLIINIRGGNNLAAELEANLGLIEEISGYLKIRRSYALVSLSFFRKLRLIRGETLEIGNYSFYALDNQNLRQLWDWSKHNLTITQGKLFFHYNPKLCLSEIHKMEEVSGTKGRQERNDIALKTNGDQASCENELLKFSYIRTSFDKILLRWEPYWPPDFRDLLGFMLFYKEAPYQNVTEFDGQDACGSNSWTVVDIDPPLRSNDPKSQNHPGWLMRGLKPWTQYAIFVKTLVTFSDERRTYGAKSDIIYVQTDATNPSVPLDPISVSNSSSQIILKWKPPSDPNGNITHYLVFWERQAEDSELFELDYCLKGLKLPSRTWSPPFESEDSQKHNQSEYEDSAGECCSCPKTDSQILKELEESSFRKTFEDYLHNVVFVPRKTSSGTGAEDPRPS
Chain of Insulin receptor (Homo sapiens) (P06213 763-1382 limits assumed): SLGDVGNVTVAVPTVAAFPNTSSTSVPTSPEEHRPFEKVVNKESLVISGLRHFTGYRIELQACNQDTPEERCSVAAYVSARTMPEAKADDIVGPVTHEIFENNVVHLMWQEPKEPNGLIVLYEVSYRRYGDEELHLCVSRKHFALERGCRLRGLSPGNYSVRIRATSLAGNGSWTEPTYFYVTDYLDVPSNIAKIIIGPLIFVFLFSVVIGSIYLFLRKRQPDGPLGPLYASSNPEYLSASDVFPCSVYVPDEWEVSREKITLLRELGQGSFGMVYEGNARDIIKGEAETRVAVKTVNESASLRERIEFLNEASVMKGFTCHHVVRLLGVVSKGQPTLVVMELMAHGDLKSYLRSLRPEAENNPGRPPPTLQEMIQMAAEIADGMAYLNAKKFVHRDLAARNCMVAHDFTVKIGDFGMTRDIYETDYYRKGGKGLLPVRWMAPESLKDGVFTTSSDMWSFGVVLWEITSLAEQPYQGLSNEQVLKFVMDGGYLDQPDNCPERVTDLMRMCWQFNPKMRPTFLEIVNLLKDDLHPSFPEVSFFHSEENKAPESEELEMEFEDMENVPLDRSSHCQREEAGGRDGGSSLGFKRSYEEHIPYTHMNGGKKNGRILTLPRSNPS
Chain of Rho-associated protein kinase 1 (Homo sapiens) (Q13464 2-1354 limits assumed): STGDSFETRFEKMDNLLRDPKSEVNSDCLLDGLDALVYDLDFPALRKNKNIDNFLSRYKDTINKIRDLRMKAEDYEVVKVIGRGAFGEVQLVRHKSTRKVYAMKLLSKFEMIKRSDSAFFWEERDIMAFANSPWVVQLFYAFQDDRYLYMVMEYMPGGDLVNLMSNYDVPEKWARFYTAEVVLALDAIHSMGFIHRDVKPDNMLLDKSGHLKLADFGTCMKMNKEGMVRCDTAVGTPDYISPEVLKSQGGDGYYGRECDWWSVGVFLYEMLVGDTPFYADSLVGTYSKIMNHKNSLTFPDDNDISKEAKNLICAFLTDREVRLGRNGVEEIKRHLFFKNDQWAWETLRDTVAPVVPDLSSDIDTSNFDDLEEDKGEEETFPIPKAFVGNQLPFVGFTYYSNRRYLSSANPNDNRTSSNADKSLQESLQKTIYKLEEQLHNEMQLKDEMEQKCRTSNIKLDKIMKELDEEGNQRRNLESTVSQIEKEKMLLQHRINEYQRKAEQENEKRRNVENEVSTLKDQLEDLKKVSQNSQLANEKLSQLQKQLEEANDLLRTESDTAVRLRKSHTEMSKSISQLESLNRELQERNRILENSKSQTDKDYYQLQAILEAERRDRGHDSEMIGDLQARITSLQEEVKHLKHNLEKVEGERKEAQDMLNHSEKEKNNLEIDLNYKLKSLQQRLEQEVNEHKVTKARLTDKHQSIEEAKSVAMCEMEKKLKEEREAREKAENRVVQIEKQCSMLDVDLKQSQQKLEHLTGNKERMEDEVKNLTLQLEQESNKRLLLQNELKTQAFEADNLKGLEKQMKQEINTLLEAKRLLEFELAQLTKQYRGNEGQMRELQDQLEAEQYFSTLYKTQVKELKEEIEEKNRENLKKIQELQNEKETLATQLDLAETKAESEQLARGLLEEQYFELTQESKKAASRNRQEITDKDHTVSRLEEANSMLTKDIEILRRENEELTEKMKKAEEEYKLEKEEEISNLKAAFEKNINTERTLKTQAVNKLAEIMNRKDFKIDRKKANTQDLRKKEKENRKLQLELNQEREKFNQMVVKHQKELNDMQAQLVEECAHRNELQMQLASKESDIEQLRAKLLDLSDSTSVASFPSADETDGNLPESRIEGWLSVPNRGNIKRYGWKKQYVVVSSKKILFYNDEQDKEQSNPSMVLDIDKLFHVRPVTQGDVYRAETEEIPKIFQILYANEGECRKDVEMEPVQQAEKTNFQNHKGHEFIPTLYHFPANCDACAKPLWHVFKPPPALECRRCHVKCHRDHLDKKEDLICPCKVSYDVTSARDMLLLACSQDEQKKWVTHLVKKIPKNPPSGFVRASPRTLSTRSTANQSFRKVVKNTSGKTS
Chain of D(4) dopamine receptor (Homo sapiens) (P21917 whole entry): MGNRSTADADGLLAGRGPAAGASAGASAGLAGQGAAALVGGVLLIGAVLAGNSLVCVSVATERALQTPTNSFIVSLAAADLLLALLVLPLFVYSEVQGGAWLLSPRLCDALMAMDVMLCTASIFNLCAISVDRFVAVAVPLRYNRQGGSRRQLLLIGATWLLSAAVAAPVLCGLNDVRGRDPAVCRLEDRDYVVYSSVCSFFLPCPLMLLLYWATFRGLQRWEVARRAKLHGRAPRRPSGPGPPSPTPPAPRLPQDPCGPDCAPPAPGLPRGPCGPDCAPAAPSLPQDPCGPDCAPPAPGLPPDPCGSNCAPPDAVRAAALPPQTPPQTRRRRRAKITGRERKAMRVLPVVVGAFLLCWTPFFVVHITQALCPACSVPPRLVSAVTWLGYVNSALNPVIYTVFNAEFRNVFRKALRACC

In the case of `CCOC(=O)c1cc2cc(-c3cc(C(=O)NCc4ccc(C(=O)O)cc4)nn3C)ccc2[nH]1` [BI 4394], the residual activity is 98% in [1]; 97% in assay [2]; 1% in [3]; 64% in [5]; 78% in [6]; 93% in assay [7]. Also, the residual activity in [8] is 48%; in assay [9], 82%. Further, the inhibition in [4] is 2.26%.

As for `Cn1nc(C(=O)NCc2ccc(C(=O)O)cc2)cc1-c1ccc2[nH]ccc2c1` [BI 4395], in assay [10], the inhibition was -8.91%.

The values are drawn from ChEMBL document CHEMBL4507281, “Data for DCP probe BI-4394” (2021).
